Values belong to the compound of their own block, whether it stands above or below them.
System: Ras family GTPases (KRas WT, G12v, G13d, G12a, G12c, G12d, Q61H, Q61L, Q61R; HRas WT, HRas G12v; CDC42 WT, CDC42 L61; Rac1 WT, Rac1 L61)
Test: Multiplex flow cytometry Bodipy FL-GTP binding, compound screen and dose response
Conditions: for class of modulation of Bodipy-GTP binding to Ras family GTPases (pan activator, pan inhibitor, selective inhibitor, mixed activity modulator): multiplex, 10 nM Bodipy FL-GTP, compound 100-0.015 μM, normalized to DMSO
Description: Following this initial incubation, passivated beads were collected by centrifugation and resuspended in assay buffer with individual GST-GTPase fusion proteins at a final concentration of 1 M. Overnight coupling reactions were carried out at 4° C. with rotation. The amount of each bead type used for coupling and the final volume of the coupling reaction was determined by the experimental protocol. Typically, bead sets are used at a final concentration of 200 bead/μL. To remove unbound GST-GTPase, bead sets were washed twice by centrifugation with ice-cold assay buffer. Individually coated beads were pooled together and kept cold in an appropriate volume before use in binding assays. Bead-bound proteins are sufficiently stable to study secondary interactions between GTPase-GST chimera's and Bodipy-FL GTP^54. Note that an extra GSH-bead set is included that is not protein coupled. This set serves as a ‘scavenger’ for proteins that might dissociate during the binding assay.
An equal volume (10 nL) of DMSO was added to the vehicle control wells (column 2). Following the addition of library compounds, 2 μL of assay buffer was added and the plates were mixed before addition of 5 μL of the protein-coupled bead mixtures; 10 μL of assay buffer was added to empty wells in columns 1 and 24. Empty wells serve as wash wells between compound wells and control wells. Plates were mixed and incubated on a rotator for 30 minutes at 4° C. before the addition of 3 μL of Bodipy FL-GTP resulting in a final concentration 10 nM Bodipy FL-GTP. Plates were mixed and incubated for 1 hour at 4° C. Negative controls, containing bead mixtures, Bodipy FL-GTP, and 30 μM unlabeled GTP were assayed separately. Dose response plates were assembled similarly.
Data Acquisition: Assay plates were sampled using the HyperCyt™ high throughput flow cytometry platform (Intellicyt; Albuquerque, N. Mex.). During sampling, the probe moves from well to well and samples 1-2 μL from each well with 0.4 sec transit time in the air before sampling the next well. […] Plate data are acquired as time-resolved files that are parsed by software-based well identification algorithms, segregating individual well data that is merged with compound library files to determine compound activity in each well. Gating based on red fluorescence emission distinguishes the separately coated beads. Plate performance was validated using the Z-prime calculation^58.
Dose response data points were fitted by Prism® software (GraphPad Software Inc., San Diego, Calif.) using nonlinear least-squares regression in a sigmoidal dose-response model with variable slope, also known as the 4-parameter logistic equation.
Each well of an assay plate contained 10 sets of beads with variable red fluorescent intensities. Nine protein-coupled bead sets, carrying the different GST-KRas proteins were combined with an uncoupled GSH-bead that serves as a scavenger for GST-proteins that might dissociate during the assay. Bead mixtures were dispensed into individual wells of a 384-well assay plate and incubated with fluorescent GTP in the presence of library compounds. The final concentration of reagents in each assay well was 10 μM compound, 10 nM Bodipy FL-GTP, and 0.1% DMSO. Each bead set was added at 200 beads/μL. Each plate was analyzed both in forward (starting with A1) and reverse direction to account for fluorescent compounds that can carryover during sampling and effect subsequent sample values. […] Excess GTP containing wells were evaluated separately and were used, along with the DMSO control wells, to calculate a Z′ value for each bead set. […] A secondary single point evaluation was performed on these identified primary hits.

SMILES: COc1ccc2cc([C@@H](C)C(=O)[O-])ccc2c1.[Na+] [(R)-Naproxen sodium salt]
activity or affinity relative to other compounds (multiplex dose response): greater activity than did the naproxen sample
class of modulation of Bodipy-GTP binding to Ras family GTPases (pan activator, pan inhibitor, selective inhibitor, mixed activity modulator) (listed as (R)-naproxen sodium salt, sodium salt): Pan activators
class of modulation of Bodipy-GTP binding to Ras family GTPases (pan activator, pan inhibitor, selective inhibitor, mixed activity modulator) (sodium salt): pan activators

selectivity among GTPases (RAS vs non-RAS, individual proteins) (multiplex dose response): RAS activator/non-RAS inhibitor
class of modulation of Bodipy-GTP binding to Ras family GTPases (pan activator, pan inhibitor, selective inhibitor, mixed activity modulator): mixed activity modulators
class of modulation of Bodipy-GTP binding to Ras family GTPases (pan activator, pan inhibitor, selective inhibitor, mixed activity modulator) (listed as B-lapachone): mixed activity
class of modulation of Bodipy-GTP binding to Ras family GTPases (pan activator, pan inhibitor, selective inhibitor, mixed activity modulator) (listed as Beta-lapachone): modulators with mixed activity
SMILES: CC1(C)CCC2=C(O1)c1ccccc1C(=O)C2=O [Beta Lapachone]

class of modulation of Bodipy-GTP binding to Ras family GTPases (pan activator, pan inhibitor, selective inhibitor, mixed activity modulator): mixed activity modulators
class of modulation of Bodipy-GTP binding to Ras family GTPases (pan activator, pan inhibitor, selective inhibitor, mixed activity modulator) (listed as darapladib): modulators with mixed activity
SMILES: CCN(CC)CCN(Cc1ccc(-c2ccc(C(F)(F)F)cc2)cc1)C(=O)Cn1c(SCc2ccc(F)cc2)nc(=O)c2c1CCC2 [Darapladib]

class of modulation of Bodipy-GTP binding to Ras family GTPases (pan activator, pan inhibitor, selective inhibitor, mixed activity modulator): pan inhibitors
class of modulation of Bodipy-GTP binding to Ras family GTPases (pan activator, pan inhibitor, selective inhibitor, mixed activity modulator) (listed as Diffractaic Acid): Pan inhibitors
SMILES: COc1cc(C)c(C(=O)Oc2cc(C)c(C(=O)O)c(O)c2C)c(OC)c1C [Diffractaic acid]

class of modulation of Bodipy-GTP binding to Ras family GTPases (pan activator, pan inhibitor, selective inhibitor, mixed activity modulator): pan activators
class of modulation of Bodipy-GTP binding to Ras family GTPases (pan activator, pan inhibitor, selective inhibitor, mixed activity modulator) (listed as dioxybenzone): activators
SMILES: COc1ccc(C(=O)c2ccccc2O)c(O)c1 [Dioxybenzone]

class of modulation of Bodipy-GTP binding to Ras family GTPases (pan activator, pan inhibitor, selective inhibitor, mixed activity modulator): pan inhibitors
SMILES: O=c1c(O)c(-c2ccc(O)c(O)c2)oc2cc(O)ccc12 [Fisetin]

class of modulation of Bodipy-GTP binding to Ras family GTPases (pan activator, pan inhibitor, selective inhibitor, mixed activity modulator): pan activators
class of modulation of Bodipy-GTP binding to Ras family GTPases (pan activator, pan inhibitor, selective inhibitor, mixed activity modulator) (listed as fufenamic acid): Pan activators
SMILES: O=C(O)c1ccccc1Nc1cccc(C(F)(F)F)c1 [Flufenamic Acid]

class of modulation of Bodipy-GTP binding to Ras family GTPases (pan activator, pan inhibitor, selective inhibitor, mixed activity modulator): pan activators
class of modulation of Bodipy-GTP binding to Ras family GTPases (pan activator, pan inhibitor, selective inhibitor, mixed activity modulator) (listed as fluribuprofen): Pan activators
SMILES: CC(C(=O)O)c1ccc(-c2ccccc2)c(F)c1 (stereo not shown) [Flurbiprofen]

class of modulation of Bodipy-GTP binding to Ras family GTPases (pan activator, pan inhibitor, selective inhibitor, mixed activity modulator): pan inhibitors
SMILES: Nc1nc2ncc(CNc3ccc(C(=O)N[C@@H](CCC(=O)O)C(=O)O)cc3)nc2c(=O)[nH]1 [Folic acid]

SMILES: CN(C)CCCn1cc(C2=C(c3c[nH]c4ccccc34)C(=O)NC2=O)c2ccccc21 [GF109203X]
selectivity among GTPases (RAS vs non-RAS, individual proteins) (multiplex dose response): selective activator non-RAS
class of modulation of Bodipy-GTP binding to Ras family GTPases (pan activator, pan inhibitor, selective inhibitor, mixed activity modulator): modulators with mixed activity

class of modulation of Bodipy-GTP binding to Ras family GTPases (pan activator, pan inhibitor, selective inhibitor, mixed activity modulator): pan inhibitors
class of modulation of Bodipy-GTP binding to Ras family GTPases (pan activator, pan inhibitor, selective inhibitor, mixed activity modulator) (listed as GSK3787): Pan inhibitors
SMILES: O=C(NCCS(=O)(=O)c1ccc(C(F)(F)F)cn1)c1ccc(Cl)cc1 [GSK 3787]

class of modulation of Bodipy-GTP binding to Ras family GTPases (pan activator, pan inhibitor, selective inhibitor, mixed activity modulator): pan inhibitors
SMILES: Oc1ccc2ccccc2c1SSc1c(O)ccc2ccccc12 [IPA 3]

SMILES: CCC(Cc1c(I)cc(I)c(N)c1I)C(=O)O (stereo not shown) [Iopanic acid]
class of modulation of Bodipy-GTP binding to Ras family GTPases (pan activator, pan inhibitor, selective inhibitor, mixed activity modulator): pan activators
class of modulation of Bodipy-GTP binding to Ras family GTPases (pan activator, pan inhibitor, selective inhibitor, mixed activity modulator) (listed as iopanic acid): activators

class of modulation of Bodipy-GTP binding to Ras family GTPases (pan activator, pan inhibitor, selective inhibitor, mixed activity modulator): mixed activity modulators
class of modulation of Bodipy-GTP binding to Ras family GTPases (pan activator, pan inhibitor, selective inhibitor, mixed activity modulator) (listed as ipsapirone): modulators with mixed activity
SMILES: O=C1c2ccccc2S(=O)(=O)N1CCCCN1CCN(c2ncccn2)CC1 [Ipsapirone]
